# Calls of active or inactive are those of the source. The calls are words filed in the database; no cut-off is given here.
# Test system: HCC827
# Test: Induction of apoptosis in human HCC827 cells assessed as viable cells at 1 uM incubated for 32 hrs by annexin V-FITC and PI staining based flow cytometry analysis (reference value: 72.15 %)
# Format: functional
# Conditions: read-out: Activity
row,SMILES,viability at 1 µM
1,Cc1ncsc1-c1ccc(CNC(=O)[C@@H]2C[C@@H](O)CN2C(=O)[C@@H](NC(=O)CCCCCCN2CCN(c3ccc(Nc4cc5c(N6CCC(CO)CC6)nc(Nc6ccc(F)cc6)nc5cn4)nc3)CC2)C(C)(C)C)cc1,22.4%

# Test system: HCC827
# Test: Induction of cell cycle arrest in human HCC827 cells assessed as accumulation in G1 phase at 0.1 uM incubated for 32 hrs by PI staining based flow cytometry analysis (reference value: 50.48 %)
# Format: functional
# Conditions: not given
row,SMILES,Activity
1,Cc1ncsc1-c1ccc(CNC(=O)[C@@H]2C[C@@H](O)CN2C(=O)[C@@H](NC(=O)CCCCCCN2CCN(c3ccc(Nc4cc5c(N6CCC(CO)CC6)nc(Nc6ccc(F)cc6)nc5cn4)nc3)CC2)C(C)(C)C)cc1,81.94%

# Test system: HCC827
# Test: Protac activity at E3 ubiquitin ligase/EGFR in human HCC827 cells assessed as increase in degradation of EGFR measured upto 96 hrs by Western blot analysis
# Format: cell-based
# Conditions: time hrs <=96, TDE = time-dependent effect
row,SMILES,Activity
1,Cc1ncsc1-c1ccc(CNC(=O)[C@@H]2C[C@@H](O)CN2C(=O)[C@@H](NC(=O)CCCCCCN2CCN(c3ccc(Nc4cc5c(N6CCC(CO)CC6)nc(Nc6ccc(F)cc6)nc5cn4)nc3)CC2)C(C)(C)C)cc1,Tde

# Test system: NCI-H1975
# Test: Antiproliferative activity against human NCI-H1975 cells harboring EGFR L858/T790M mutant assessed as reduction in cell viability incubated for 72 hrs by MTT assay
# Format: functional, cell-based
# Conditions: NCI-H1975, 72 h
row,SMILES,IC50
1,Cc1ncsc1-c1ccc(CNC(=O)[C@@H]2C[C@@H](O)CN2C(=O)[C@@H](NC(=O)CCCCCCN2CCN(c3ccc(Nc4cc5c(N6CCC(CO)CC6)nc(Nc6ccc(F)cc6)nc5cn4)nc3)CC2)C(C)(C)C)cc1,> 10 µM

# Test system: A549
# Test: Antiproliferative activity against human A549 cells harboring EGFR assessed as reduction in cell viability incubated for 72 hrs by MTT assay
# Format: functional, cell-based
# Conditions: A549, 72 h
row,SMILES,IC50
1,Cc1ncsc1-c1ccc(CNC(=O)[C@@H]2C[C@@H](O)CN2C(=O)[C@@H](NC(=O)CCCCCCN2CCN(c3ccc(Nc4cc5c(N6CCC(CO)CC6)nc(Nc6ccc(F)cc6)nc5cn4)nc3)CC2)C(C)(C)C)cc1,> 10 µM

# Test system: HCC827
# Test: Protac activity at E3 ubiquitin ligase/EGFR in human HCC827 cells assessed as increase in degradation of EGFR at 100 nM incubated for 72 hrs by Western blot analysis relative to control
# Format: cell-based
# Conditions: not given
row,SMILES,Emax
1,Cc1ncsc1-c1ccc(CNC(=O)[C@@H]2C[C@@H](O)CN2C(=O)[C@@H](NC(=O)CCCCCCN2CCN(c3ccc(Nc4cc5c(N6CCC(CO)CC6)nc(Nc6ccc(F)cc6)nc5cn4)nc3)CC2)C(C)(C)C)cc1,98%

# Test system: NCI-H1975
# Test: Protac activity at E3 ubiquitin ligase/EGFR in human NCI-H1975 cells harboring EGFR T790M mutant assessed as increase in degradation of EGFR at 0.1 to 10 uM incubated for 48 hrs by Western blot analysis
# Format: cell-based
# Conditions: dose 0.1-10 µM
row,SMILES,Activity
1,Cc1ncsc1-c1ccc(CNC(=O)[C@@H]2C[C@@H](O)CN2C(=O)[C@@H](NC(=O)CCCCCCN2CCN(c3ccc(Nc4cc5c(N6CCC(CO)CC6)nc(Nc6ccc(F)cc6)nc5cn4)nc3)CC2)C(C)(C)C)cc1,Active

# Test system: HCC827
# Test: Induction of cell cycle arrest in human HCC827 cells assessed as accumulation in S phase at 1 uM incubated for 32 hrs by PI staining based flow cytometry analysis (reference value: 41.26 %)
# Format: functional
# Conditions: not given
row,SMILES,Activity
1,Cc1ncsc1-c1ccc(CNC(=O)[C@@H]2C[C@@H](O)CN2C(=O)[C@@H](NC(=O)CCCCCCN2CCN(c3ccc(Nc4cc5c(N6CCC(CO)CC6)nc(Nc6ccc(F)cc6)nc5cn4)nc3)CC2)C(C)(C)C)cc1,7.99%

# Test system: HCC827
# Test: Induction of apoptosis in human HCC827 cells assessed as necrotic cells at 1 uM incubated for 32 hrs by annexin V-FITC and PI staining based flow cytometry analysis (reference value: 7.12 %)
# Format: functional
# Conditions: not given
row,SMILES,Activity
1,Cc1ncsc1-c1ccc(CNC(=O)[C@@H]2C[C@@H](O)CN2C(=O)[C@@H](NC(=O)CCCCCCN2CCN(c3ccc(Nc4cc5c(N6CCC(CO)CC6)nc(Nc6ccc(F)cc6)nc5cn4)nc3)CC2)C(C)(C)C)cc1,9.9%

# Test system: HCC827
# Test: Induction of cell cycle arrest in human HCC827 cells assessed as accumulation in G2 phase at 0.1 uM incubated for 32 hrs by PI staining based flow cytometry analysis (reference value: 8.25 %)
# Format: functional
# Conditions: not given
row,SMILES,Activity
1,Cc1ncsc1-c1ccc(CNC(=O)[C@@H]2C[C@@H](O)CN2C(=O)[C@@H](NC(=O)CCCCCCN2CCN(c3ccc(Nc4cc5c(N6CCC(CO)CC6)nc(Nc6ccc(F)cc6)nc5cn4)nc3)CC2)C(C)(C)C)cc1,6.39%

# Biological target: Epidermal growth factor receptor (Homo sapiens) (UniProt P00533)
# Test: Inhibition of EGFR in human HCC827 cells assessed as reduction in EGFR phosphorylation incubated for 36 hrs by Western blot analysis
# Format: cell-based
# Conditions: dose 0.1-1 µM
# Chain of Epidermal growth factor receptor (Homo sapiens) (P00533 whole entry): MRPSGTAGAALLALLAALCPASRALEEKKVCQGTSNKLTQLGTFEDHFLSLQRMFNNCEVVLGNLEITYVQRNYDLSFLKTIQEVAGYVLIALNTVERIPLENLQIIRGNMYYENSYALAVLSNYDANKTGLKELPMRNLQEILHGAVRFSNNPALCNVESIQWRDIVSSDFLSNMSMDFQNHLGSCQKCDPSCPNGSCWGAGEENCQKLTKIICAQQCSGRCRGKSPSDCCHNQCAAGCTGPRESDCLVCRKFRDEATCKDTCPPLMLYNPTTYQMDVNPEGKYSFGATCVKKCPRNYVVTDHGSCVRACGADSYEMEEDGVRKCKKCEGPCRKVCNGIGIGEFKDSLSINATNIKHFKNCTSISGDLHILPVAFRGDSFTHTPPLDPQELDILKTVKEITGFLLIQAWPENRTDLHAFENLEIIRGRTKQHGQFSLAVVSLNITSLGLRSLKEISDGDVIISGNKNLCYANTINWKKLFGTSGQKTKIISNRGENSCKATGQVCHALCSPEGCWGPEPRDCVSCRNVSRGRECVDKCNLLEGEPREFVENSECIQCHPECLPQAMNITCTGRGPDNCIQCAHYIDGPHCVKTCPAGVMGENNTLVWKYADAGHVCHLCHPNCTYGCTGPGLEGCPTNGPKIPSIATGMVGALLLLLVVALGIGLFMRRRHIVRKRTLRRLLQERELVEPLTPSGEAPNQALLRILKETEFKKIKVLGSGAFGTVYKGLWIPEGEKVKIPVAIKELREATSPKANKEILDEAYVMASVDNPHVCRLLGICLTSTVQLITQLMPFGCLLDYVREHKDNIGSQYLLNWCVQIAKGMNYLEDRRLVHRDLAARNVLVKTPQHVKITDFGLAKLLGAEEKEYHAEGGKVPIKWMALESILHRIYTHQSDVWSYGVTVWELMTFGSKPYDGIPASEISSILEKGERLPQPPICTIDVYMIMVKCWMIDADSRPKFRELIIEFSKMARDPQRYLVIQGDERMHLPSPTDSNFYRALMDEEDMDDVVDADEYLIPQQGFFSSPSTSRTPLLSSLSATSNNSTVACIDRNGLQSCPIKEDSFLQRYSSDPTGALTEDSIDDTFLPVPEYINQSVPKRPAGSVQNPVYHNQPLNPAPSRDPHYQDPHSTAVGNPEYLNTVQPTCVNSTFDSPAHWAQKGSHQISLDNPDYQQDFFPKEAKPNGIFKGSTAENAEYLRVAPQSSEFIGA
row,SMILES,inhibition
1,Cc1ncsc1-c1ccc(CNC(=O)[C@@H]2C[C@@H](O)CN2C(=O)[C@@H](NC(=O)CCCCCCN2CCN(c3ccc(Nc4cc5c(N6CCC(CO)CC6)nc(Nc6ccc(F)cc6)nc5cn4)nc3)CC2)C(C)(C)C)cc1,Dose-dependent effect

# Test system: HCC827
# Test: Induction of apoptosis in human HCC827 cells assessed as late apoptotic cells at 0.1 uM incubated for 32 hrs by annexin V-FITC and PI staining based flow cytometry analysis (reference value: 14.23 %)
# Format: functional
# Conditions: not given
row,SMILES,Activity
1,Cc1ncsc1-c1ccc(CNC(=O)[C@@H]2C[C@@H](O)CN2C(=O)[C@@H](NC(=O)CCCCCCN2CCN(c3ccc(Nc4cc5c(N6CCC(CO)CC6)nc(Nc6ccc(F)cc6)nc5cn4)nc3)CC2)C(C)(C)C)cc1,25.73%

# Test system: HCC827
# Test: Induction of cell cycle arrest in human HCC827 cells assessed as accumulation in G2 phase at 1 uM incubated for 32 hrs by PI staining based flow cytometry analysis (reference value: 8.25 %)
# Format: functional
# Conditions: not given
row,SMILES,Activity
1,Cc1ncsc1-c1ccc(CNC(=O)[C@@H]2C[C@@H](O)CN2C(=O)[C@@H](NC(=O)CCCCCCN2CCN(c3ccc(Nc4cc5c(N6CCC(CO)CC6)nc(Nc6ccc(F)cc6)nc5cn4)nc3)CC2)C(C)(C)C)cc1,8.86%

# Test system: HCC827
# Test: Induction of apoptosis in human HCC827 cells assessed as necrotic cells at 0.1 uM incubated for 32 hrs by annexin V-FITC and PI staining based flow cytometry analysis (reference value: 6.68 %)
# Format: functional
# Conditions: not given
row,SMILES,Activity
1,Cc1ncsc1-c1ccc(CNC(=O)[C@@H]2C[C@@H](O)CN2C(=O)[C@@H](NC(=O)CCCCCCN2CCN(c3ccc(Nc4cc5c(N6CCC(CO)CC6)nc(Nc6ccc(F)cc6)nc5cn4)nc3)CC2)C(C)(C)C)cc1,6.62%

# Reference: ChEMBL document CHEMBL4680163, “Discovery of potent epidermal growth factor receptor (EGFR) degraders by proteolysis targeting chimera (PROTAC)” (Eur J Med Chem, 2020)
